Assay results: PubChem BioAssay (NCI)
Several values for one entry are separate records, joined by “and”; a condition that tells them apart may be missing. Equal entries are not always repeated.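 Following 48 hours of exposure in 96-well plates, responses at five concentrations were used to interpolate endpoints linearly. Abbreviation: GI50, concentration required for 50% inhibition of growth. The concentration for full growth arrest is given as TGI.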

What was measured:
Assay in all cases: DTP human tumour cell line panel, 48 h
IGROV1 ovarian = tested on: IGROV1 ovarian
SN12C renal = tested on: SN12C renal
OVCAR-3 ovarian = tested on: OVCAR-3 ovarian
TK-10 renal = tested on: TK-10 renal
OVCAR-8 ovarian = tested on: OVCAR-8 ovarian
SK-MEL-2 melanoma = tested on: SK-MEL-2 melanoma
SF-295 CNS = tested on: SF-295 CNS
NCI-H460 lung = tested on: NCI-H460 lung
A549 NSCLC = tested on: A549 NSCLC
SF-539 CNS = tested on: SF-539 CNS
NCI-H23 lung = tested on: NCI-H23 lung
SW-620 colon = tested on: SW-620 colon
SF-268 CNS = tested on: SF-268 CNS
786-0 renal = tested on: 786-0 renal
HOP-92 NSCLC = tested on: HOP-92 NSCLC
MDA-N = tested on: MDA-N
MCF7 breast = tested on: MCF7 breast
MDA-MB-231 breast = tested on: MDA-MB-231 breast

SMILES: COc1cc(C2c3cc4c(cc3[C@@H](NCCN3CCCCC3)C3COC(=O)[C@H]23)OCO4)cc(OC)c1O (some centres not stated)
- TGI (IGROV1 ovarian): 4.56 µM and 7.55 µM
- TGI (SN12C renal): 5.81 µM and 5.85 µM
- TGI (OVCAR-3 ovarian): 3.52 µM and 3.72 µM
- TGI (TK-10 renal): 5.34 µM and 5.88 µM
- TGI (OVCAR-8 ovarian): 2.45 µM and 3.41 µM
- TGI (SK-MEL-2 melanoma): 4.92 µM and 4.65 µM
- TGI (SF-295 CNS): 0.881 µM
- GI50 (NCI-H460 lung): 0.0285 µM
- TGI (NCI-H460 lung): 1.03 µM and 0.914 µM
- TGI (A549 NSCLC): 1.3 µM
- TGI (SF-539 CNS): 0.842 µM and 0.896 µM
- TGI (NCI-H23 lung): 1.39 µM and 1.48 µM
- TGI (SW-620 colon): 11.4 µM and 10.2 µM
- TGI (SF-268 CNS): 6 µM and 15.8 µM
- TGI (786-0 renal): 1.01 µM and 0.808 µM
- TGI (HOP-92 NSCLC): 0.84 µM and 1.64 µM

SMILES: Cc1cccc(NC(=O)c2cc3cc(N=Nc4ccccc4Cl)ccc3oc2=O)c1
- TGI (IGROV1 ovarian): > 100 µM
- TGI (SN12C renal): > 100 µM
- TGI (OVCAR-3 ovarian): > 100 µM
- TGI (TK-10 renal): 86.2 µM
- TGI (OVCAR-8 ovarian): > 100 µM
- TGI (SF-295 CNS): > 100 µM
- TGI (NCI-H460 lung): > 100 µM
- TGI (A549 NSCLC): > 100 µM
- TGI (SF-539 CNS): 94.9 µM
- TGI (NCI-H23 lung): 59.5 µM
- TGI (SW-620 colon): > 100 µM
- TGI (SF-268 CNS): 84.4 µM
- TGI (786-0 renal): > 100 µM
- TGI (HOP-92 NSCLC): 76.1 µM

SMILES: COc1cc2c(cc1OC)CC(=O)c1cc(OC)c(OC)cc1/C=C\2
- TGI (IGROV1 ovarian): > 12.5 µM
- TGI (MDA-N): 7.36 µM
- TGI (SN12C renal): > 12.5 µM
- TGI (OVCAR-3 ovarian): > 12.5 µM
- TGI (MCF7 breast): > 12.5 µM
- TGI (TK-10 renal): > 12.5 µM
- TGI (OVCAR-8 ovarian): > 12.5 µM
- TGI (SK-MEL-2 melanoma): > 12.5 µM
- TGI (SF-295 CNS): > 12.5 µM
- TGI (NCI-H460 lung): > 12.5 µM
- TGI (A549 NSCLC): > 12.5 µM
- TGI (SF-539 CNS): > 12.5 µM
- TGI (NCI-H23 lung): > 12.5 µM
- TGI (SW-620 colon): > 12.5 µM
- TGI (MDA-MB-231 breast): > 12.5 µM
- TGI (SF-268 CNS): > 12.5 µM
- TGI (786-0 renal): > 12.5 µM
- TGI (HOP-92 NSCLC): > 12.5 µM

SMILES: CCn1c2ccccc2c2ccc3c(c21)C(=O)c1ccccc1C3=O
- TGI (IGROV1 ovarian): > 100 µM
- TGI (SN12C renal): > 100 µM
- TGI (OVCAR-8 ovarian): > 100 µM
- TGI (SF-295 CNS): > 100 µM
- TGI (A549 NSCLC): > 100 µM
- TGI (SF-539 CNS): > 100 µM
- TGI (NCI-H23 lung): > 100 µM
- TGI (SW-620 colon): > 100 µM
- TGI (SF-268 CNS): > 100 µM
- TGI (786-0 renal): > 100 µM
- TGI (HOP-92 NSCLC): > 100 µM

SMILES: CCN(CC)CCC1CCCCN1CC(=O)N1c2ccccc2NC(=O)c2ccccc21 (configuration not stated)
- TGI (IGROV1 ovarian): > 100 µM
- TGI (MDA-N): > 100 µM
- TGI (SN12C renal): > 100 µM
- TGI (OVCAR-3 ovarian): > 100 µM
- TGI (MCF7 breast): > 100 µM
- TGI (TK-10 renal): > 100 µM
- TGI (OVCAR-8 ovarian): > 100 µM
- TGI (SK-MEL-2 melanoma): > 100 µM
- TGI (SF-295 CNS): > 100 µM
- TGI (NCI-H460 lung): > 100 µM
- TGI (A549 NSCLC): > 100 µM
- TGI (SF-539 CNS): > 100 µM
- TGI (NCI-H23 lung): > 100 µM
- TGI (MDA-MB-231 breast): > 100 µM
- TGI (SF-268 CNS): > 100 µM
- TGI (786-0 renal): > 100 µM
- TGI (HOP-92 NSCLC): > 100 µM

SMILES: Cc1cc(NC(=O)NC(=O)c2ccccc2N)ccc1Oc1ncc(Br)cn1
- TGI (IGROV1 ovarian): 24 µM
- TGI (SN12C renal): > 46.4 µM
- TGI (OVCAR-3 ovarian): < 0.0173 µM
- TGI (MCF7 breast): 18.6 µM
- TGI (TK-10 renal): 35.1 µM
- TGI (OVCAR-8 ovarian): > 46.1 µM
- TGI (SK-MEL-2 melanoma): 0.481 µM
- TGI (SF-295 CNS): 17 µM
- TGI (NCI-H460 lung): 14.3 µM
- TGI (A549 NSCLC): 20.7 µM
- TGI (SF-539 CNS): 0.287 µM
- TGI (NCI-H23 lung): 0.575 µM
- TGI (SW-620 colon): > 100 µM
- TGI (MDA-MB-231 breast): 7.93 µM
- TGI (SF-268 CNS): > 67.3 µM
- TGI (786-0 renal): 41.2 µM
- TGI (HOP-92 NSCLC): 53.8 µM

SMILES: CCC(CC)n1cc(C(=O)NC(=O)NCCCCCOC(=O)CCCCCCCCCCC(=O)OCCCCCNC(=O)NC(=O)c2cn(C(CC)CC)c(=O)[nH]c2=O)c(=O)[nH]c1=O
- TGI (IGROV1 ovarian): > 100 µM
- TGI (SN12C renal): > 100 µM
- TGI (OVCAR-3 ovarian): > 100 µM
- TGI (TK-10 renal): > 100 µM
- TGI (OVCAR-8 ovarian): > 100 µM
- TGI (SF-295 CNS): > 100 µM
- TGI (NCI-H460 lung): > 100 µM
- TGI (A549 NSCLC): > 100 µM
- TGI (SF-539 CNS): > 100 µM
- TGI (NCI-H23 lung): > 100 µM
- TGI (SW-620 colon): > 100 µM
- TGI (SF-268 CNS): > 100 µM
- TGI (786-0 renal): > 100 µM
- TGI (HOP-92 NSCLC): > 100 µM
